# Experiments:
# Assay type in all cases: functional, cell membranes, Membrane vesicle
# Parameters in all cases: scale not given: the % may be the effect or the level left
# [1] = molecular target: T1, Bsep (bile salt export pump) (Mus musculus, UniProt Q9QY30); test: TP_TRANSPORTER: inhibition of Taurocholate uptake (Taurochorate: 5 uM, CDCA: 50 uM) in membrane vesicles isolated from Bsep-expressing Balb-3T3 cells; details: probe taurocholate, read-out: Activity
# T1 sequence (Q9QY30 whole entry): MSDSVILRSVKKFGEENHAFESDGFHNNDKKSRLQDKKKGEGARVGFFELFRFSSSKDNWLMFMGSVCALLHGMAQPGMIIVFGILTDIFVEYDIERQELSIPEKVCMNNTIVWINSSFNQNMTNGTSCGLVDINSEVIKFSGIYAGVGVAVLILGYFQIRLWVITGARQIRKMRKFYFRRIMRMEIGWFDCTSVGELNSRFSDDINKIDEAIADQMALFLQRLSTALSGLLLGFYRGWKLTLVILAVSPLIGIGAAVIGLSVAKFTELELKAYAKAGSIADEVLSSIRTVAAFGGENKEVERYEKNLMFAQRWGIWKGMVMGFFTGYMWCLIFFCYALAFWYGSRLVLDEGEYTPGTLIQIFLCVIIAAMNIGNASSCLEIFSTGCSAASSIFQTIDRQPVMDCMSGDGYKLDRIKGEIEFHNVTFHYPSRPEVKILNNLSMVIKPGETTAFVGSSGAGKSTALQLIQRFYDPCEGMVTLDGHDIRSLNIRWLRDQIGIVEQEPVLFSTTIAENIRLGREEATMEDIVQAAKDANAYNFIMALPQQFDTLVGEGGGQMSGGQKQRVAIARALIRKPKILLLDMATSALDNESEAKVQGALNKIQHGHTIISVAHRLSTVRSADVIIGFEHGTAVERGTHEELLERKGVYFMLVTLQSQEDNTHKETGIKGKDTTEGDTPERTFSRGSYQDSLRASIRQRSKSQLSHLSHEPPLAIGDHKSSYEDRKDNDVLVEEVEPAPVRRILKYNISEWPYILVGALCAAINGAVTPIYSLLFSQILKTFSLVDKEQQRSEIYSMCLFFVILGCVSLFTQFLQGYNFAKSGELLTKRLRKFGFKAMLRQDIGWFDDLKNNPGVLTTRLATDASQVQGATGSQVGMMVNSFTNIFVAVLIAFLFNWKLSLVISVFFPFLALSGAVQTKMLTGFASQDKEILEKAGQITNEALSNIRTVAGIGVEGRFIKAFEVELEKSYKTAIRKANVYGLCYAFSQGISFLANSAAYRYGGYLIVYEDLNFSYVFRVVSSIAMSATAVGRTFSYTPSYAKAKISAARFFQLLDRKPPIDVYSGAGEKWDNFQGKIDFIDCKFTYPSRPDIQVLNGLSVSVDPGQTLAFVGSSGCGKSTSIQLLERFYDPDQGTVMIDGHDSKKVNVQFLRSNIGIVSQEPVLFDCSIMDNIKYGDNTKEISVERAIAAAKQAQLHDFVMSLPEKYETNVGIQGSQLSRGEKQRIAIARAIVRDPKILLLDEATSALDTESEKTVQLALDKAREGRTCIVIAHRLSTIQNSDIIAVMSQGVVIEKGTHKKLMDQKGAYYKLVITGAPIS
# [2] = molecular target: T1, Bsep (bile salt export pump); test: TP_TRANSPORTER: inhibition of Taurocholate uptake (Taurochorate: 5 uM, TCDC: 50 uM) in membrane vesicles isolated from Bsep-expressing Balb-3T3 cells; details: probe taurocholate, read-out: Activity
# [3] = molecular target: T1, Bsep (bile salt export pump); test: TP_TRANSPORTER: inhibition of Taurocholate uptake (Taurochorate: 5 uM, TDCA: 50 uM) in membrane vesicles isolated from Bsep-expressing Balb-3T3 cells; details: probe taurocholate, read-out: Activity
# [4] = molecular target: T2, Bile salt export pump (Mus musculus, UniProt Q9QY30); test: TP_TRANSPORTER: inhibition of Taurocholate uptake (Taurochorate: 5 uM, UDCA: 50 uM) in membrane vesicles isolated from Bsep-expressing Balb-3T3 cells; details: balb/3t3, 50 µM
# T2 sequence (Q9QY30 whole entry): T1 sequence (Q9QY30 whole entry)
structure (smiles),measurement,setting,value
C[C@H](CCC(=O)O)[C@H]1CC[C@H]2[C@@H]3[C@H](O)C[C@@H]4C[C@H](O)CC[C@]4(C)[C@H]3CC[C@]12C [CHENODIOL],activity at 50 µM,[1],11%
C[C@H](CCC(=O)NCCS(=O)(=O)O)[C@H]1CC[C@H]2[C@@H]3[C@H](O)C[C@@H]4C[C@H](O)CC[C@]4(C)[C@H]3CC[C@]12C [TAUROCHENODEOXYCHOLATE],activity at 50 µM,[2],25%
C[C@H](CCC(=O)NCCS(=O)(=O)O)[C@H]1CC[C@H]2[C@@H]3CC[C@@H]4C[C@H](O)CC[C@]4(C)[C@H]3C[C@H](O)[C@]12C [TAURODEOXYCHOLIC ACID],activity at 50 µM,[3],5%
C[C@H](CCC(=O)O)[C@H]1CC[C@H]2[C@@H]3[C@@H](O)C[C@@H]4C[C@H](O)CC[C@]4(C)[C@H]3CC[C@]12C [URSODIOL],Activity,[4],51%

# Reference: ChEMBL document CHEMBL2073980, “Molecular cloning and characterization of the murine bile salt export pump” (Gene, 2000)
